For one assay, the system named is mice. Put plainly: Sub-threshold hypnotic dose sodium pentobarbital induced sleeping test. Format: in vivo. To be noted: intraperitoneal, 30 min before sub-threshold sodium pentobarbital (22 mg/kg ip). Here is the method: N^6-substituted adenosine derivatives and/or N^6-substituted adenine derivatives potentiated sodium pentobarbital-induced sleep in mice
Name of Experiment: Sub-threshold hypnotic dose sodium pentobarbital induced sleeping test
Method of Experiment: Mice (n=7-10) were pretreated with test compound or vehicle, after 30 min, a maximal sub-threshold hypnotic dose of sodium pentobarbital (22 mg/kg) was given intraperitoneally (ip). (On some condition, the sub-threshold dosage of sodium pentobarbital should be optimized to the maximum dose, at which the rate of sleep onset of vehicle group is less than 10%). […] Following sodium pentobarbital injection, each mouse was observed 15 min for onset of sleep. The percentage of sleep onset was calculated as: (number of animals falling asleep/total number of animals)×100%.

The test system of another assay is male ICR-mice. Description: Potentiation of sodium pentobarbital sleeping time test. Format: in vivo. Here is the method: Effects of N^6-substituted adenosine derivatives and/or N^6-substituted adenine derivatives on sodium pentobarbital-induced sleeping time in mice.
Name of Experiment: Potentiation of sodium pentobarbital sleeping time test.
Method of Experiment: Groups of 8-10 male ICR-mice with an average weight of 18-22 g were used. They were dosed orally or i.p. with the test compound or the vehicle. Thirty min after i.p. injection or 60 min after oral dosing 38 mg/kg sodium pentobarbital were injected intravenously. The latency and duration of sleep (loss of righting reflex) were recorded. The percentage of prolongation of sleeping time was calculated as: [(sleeping time of experimental group)−(sleeping time of control group)]/(sleeping time of control group)×100%.

[1] abbreviates: intraperitoneal, 5 mg/kg, 38 mg/kg sodium pentobarbital 30 min later.
[2] abbreviates: intraperitoneal, 1 mg/kg, 38 mg/kg sodium pentobarbital 30 min later.
[3] abbreviates: oral, 5 mg/kg, 38 mg/kg sodium pentobarbital 60 min later.

On to `COc1ccccc1CNc1ncnc2c1ncn2[C@@H]1O[C@H](CO)[C@@H](O)[C@H]1O` [N^6-(o-methoxybenzyl)-adenosine], for which, in the assay on mice (1 mg/kg), the “Sleep rate (%)” value is 100%.

Consider `O=C(O)C(Cc1c[nH]c2ccc(O)cc12)Nc1ncnc2c1ncn2[C@@H]1O[C@H](CO)C(O)C1O` (stereo partly drawn) [Example 115, N-(6-adenosine)-5-hydroxy tryptophan], for which the “Sleep rate (%)” value in the assay with mice (5 mg/kg) was 17%. Further, in the assay with male ICR-mice (setting [1]), the “Sleep prolonging rate (%)” value is recorded as 60%.

As to `OC[C@H]1O[C@@H](n2cnc3c(NCCc4c[nH]cn4)ncnc32)[C@H](O)[C@@H]1O` [Example 43, N^6-[(1H-imidazole-4-yl)-ethyl]-adenosine], the “Sleep rate (%)” value in the assay with mice (1 mg/kg) amounted to 88%. Also, the “Sleep prolonging rate (%)” value in the assay on male ICR-mice (setting [2]) was 43%.

Regarding `COc1cc(CCNc2ncnc3c2ncn3[C@@H]2O[C@H](CO)[C@@H](O)[C@H]2O)ccc1O` [Example 39, N^6-[(3-methoxy-4-hydroxyphenyl)-ethyl]-adenosine], the “Sleep rate (%)” value with mice (1 mg/kg) is given as 88%. The “Sleep prolonging rate (%)” value with male ICR-mice (setting [2]) is 13%.

Consider `COc1cc(CNc2ncnc3c2ncn3[C@@H]2O[C@H](CO)C(O)C2O)cc(OC)c1O` (stereo partly drawn) [Example 36, N^6-(4-hydroxy-3,5-dimethxoybenzyl)-adenosine], for which the “Sleep rate (%)” value in the assay with mice (5 mg/kg) came out at 86%. For the same compound, the “Sleep prolonging rate (%)” value in the assay on male ICR-mice (setting [1]) is given as 336%; with male ICR-mice (setting [3]) it was 121%.

Consider `O=[N+]([O-])c1ccc(CNc2ncnc3c2ncn3[C@@H]2O[C@H](CO)[C@@H](O)[C@H]2O)cc1` [Example 8, N^6-(p-nitrobenzyl)-adenosine], for which the “Sleep rate (%)” value with mice (1 mg/kg) was 63%. In addition, the results for the “Sleep prolonging rate (%)” value in the assay on male ICR-mice (setting [2]) and in the assay with male ICR-mice (setting [3]) were 16% and 29%, respectively.

`OC[C@H]1O[C@@H](n2cnc3c(NCc4ccc(C(F)(F)F)cc4)ncnc32)[C@H](O)[C@@H]1O` [Example 13, N^6-(p-trifluoromethylbenzyl)-adenosine]: the “Sleep rate (%)” value in the assay on mice (5 mg/kg) is 57%. Besides, the “Sleep prolonging rate (%)” value with male ICR-mice (setting [1]) was determined as 23%.

As to `OC[C@H]1O[C@@H](n2cnc3c(N4CCN(c5ccccc5)CC4)ncnc32)C(O)C1O` (stereo partly drawn) [Example 16], the “Sleep rate (%)” value in the assay with mice (5 mg/kg) turned out to be 50%. Moreover, the “Sleep prolonging rate (%)” value in the assay on male ICR-mice (setting [1]) was 34%.

As to `OC[C@H]1O[C@@H](n2cnc3c(NCc4ccc5c(c4)OCO5)ncnc32)[C@H](O)[C@@H]1O` [Example 31, N^6-(3,4-methylenedioxybenzyl)-adenosine], in the assay with mice (5 mg/kg), the “Sleep rate (%)” value is recorded as 100%. Further, the “Sleep prolonging rate (%)” value with male ICR-mice (setting [1]) came to 175%.

In the case of `CC(Nc1ncnc2c1ncn2[C@@H]1O[C@H](CO)[C@@H](O)[C@H]1O)c1ccccc1` (mixture of isomers) [Example 45, N^6-[(±)-1-(phenyl)-ethyl]-adenosine], the “Sleep rate (%)” value in the assay on mice (5 mg/kg) stood at 100%. Also, the “Sleep prolonging rate (%)” value in the assay with male ICR-mice (setting [1]) was 254%; with male ICR-mice (setting [3]), 201%.

Turning to `OC[C@H]1O[C@@H](n2cnc3c(NCc4ccco4)ncnc32)[C@H](O)[C@@H]1O` [Example 17, N^6-(2-furanylmethyl)-adenosine], the “Sleep rate (%)” value in the assay with mice (5 mg/kg) was determined as 71%.

In the case of `OC[C@H]1O[C@@H](n2cnc3c(NCc4ccccc4O)ncnc32)[C@H](O)[C@@H]1O` [Example 3, N^6-(o-hydroxybenzyl)-adenosine], the “Sleep rate (%)” value with mice (1 mg/kg) worked out at 88%. The “Sleep prolonging rate (%)” value in the assay with male ICR-mice (setting [3]) is on record as 92%.

With `COc1ccc(CNc2ncnc3c2ncn3[C@@H]2O[C@H](CO)[C@@H](O)[C@H]2O)cc1OC` [Example 30, N^6-(3,4-dimethoxybenzyl)-adenosine], the “Sleep rate (%)” value with mice (1 mg/kg) worked out at 100%.

Consider `O=C(O)[C@@H](Cc1ccc(O)cc1)Nc1ncnc2c1ncn2[C@@H]1O[C@H](CO)C(O)C1O` (stereo partly drawn) [Example 106, N-(6-adenosine)-(D)-tyrosine], for which, in the assay with mice (5 mg/kg), the “Sleep rate (%)” value is listed as 17%. Moreover, the “Sleep prolonging rate (%)” value in the assay on male ICR-mice (setting [1]) came to 82%.

For `O=C(O)[C@@H](Cc1c[nH]c2ccccc12)Nc1ncnc2c1ncn2[C@@H]1O[C@H](CO)C(O)C1O` (stereo partly drawn) [Example 111, N-(6-adenosine)-(L)-tryptophan], in the assay with mice (5 mg/kg), the “Sleep rate (%)” value is 14%. Also, the “Sleep prolonging rate (%)” value in the assay with male ICR-mice (setting [1]) turned out to be 69%.

`OC[C@H]1O[C@@H](n2cnc3c(NCc4ccc(O)c(O)c4)ncnc32)[C@H](O)[C@@H]1O` [Example 22, N^6-(3,4-dihydroxybenzyl)-adenosine]: the “Sleep rate (%)” value in the assay with mice (1 mg/kg) came to 87%; with mice (5 mg/kg), 100%. The “Sleep prolonging rate (%)” value is 32% with male ICR-mice (setting [1]) and 74% in the assay on male ICR-mice (oral, 4 mg/kg, 38 mg/kg sodium pentobarbital 60 min later).

On to `OC[C@H]1O[C@@H](n2cnc3c(NCc4ccc(F)cc4)ncnc32)[C@H](O)[C@@H]1O` [Example 11, N^6-(p-fluorobenzyl)-adenosine], for which the “Sleep rate (%)” value in the assay on mice (5 mg/kg) came out at 71%. In the assay on male ICR-mice (setting [1]), the “Sleep prolonging rate (%)” value came out at 73%.

As for `O=[N+]([O-])c1ccccc1CNc1ncnc2c1ncn2[C@@H]1O[C@H](CO)[C@@H](O)[C@H]1O` [Example 9, N^6-(o-nitrobenzyl)-adenosine], the “Sleep rate (%)” value in the assay on mice (1 mg/kg) is on record as 100%.

Regarding `CCOC(=O)[C@@H](Cc1c[nH]c2ccccc12)Nc1ncnc2c1ncn2[C@@H]1O[C@H](CO)C(O)C1O` (stereo partly drawn) [Example 114, N-(6-adenosine)-(D)-tryptophan ethyl ester], the “Sleep prolonging rate (%)” value in the assay on male ICR-mice (setting [3]) was determined as 16%.

`Cc1ccc(-c2nc3ccc(C)cn3c2CC(=O)N(C)C)cc1` [zolpidem, reference compound]: the “Sleep rate (%)” value in the assay with mice (2 mg/kg) is 75%.

As for `OC[C@H]1O[C@@H](n2cnc3c(N[C@H](c4ccccc4)[C@@H](O)c4ccccc4)ncnc32)C(O)C1O` (stereo partly drawn) [Example 99, N^6-{(1S,2R)-[2-hydroxy-(1,2-diphenyl)]-ethyl}-adenosine], the “Sleep prolonging rate (%)” value in the assay on male ICR-mice (setting [3]) came out at 46%.

Turning to `CC(=O)OC[C@H]1O[C@@H](n2cnc3c(NCc4ccc5c(c4)OCO5)ncnc32)C[C@H]1OC(C)=O` [Example 154, N^6-(3,4-methylenedioxy-benzyl)-3′,5′-diacetyl-2′-deoxyadenosine], in the assay on male ICR-mice (setting [3]), the “Sleep prolonging rate (%)” value was 29%.

For `CCCCCCCC(=O)OCC1OC(n2cnc3c(NCc4ccc5c(c4)OCO5)ncnc32)C2OC(C)(C)OC12` (stereo not drawn) [N^6-(3,4-methylenedioxybenzyl)-2′,3′-O-isopropylidene-adenosine-5′-caprylate], the “Sleep prolonging rate (%)” value in the assay with male ICR-mice (setting [3]) amounted to 4%.

For the compound `COc1cc(CNc2ncnc3nc[nH]c23)ccc1O` [N^6-(3-methoxy-4-hydroxybenzyl)-adenine], in the assay with mice (1 mg/kg), the “Sleep rate (%)” value was 38%.

Turning to `COc1ccc(CCC(=O)OC[C@H]2O[C@@H](n3cnc4c(NC(C)c5cc(OC)c(OC)c(OC)c5)ncnc43)C(O)C2O)cc1` (mixture of isomers) [Example 54, N^6-[(±)-1-(3,4,5-trimethoxyphenyl)-ethyl]-adenosine-5′-p-methoxy-phenyl propionate], in the assay on male ICR-mice (setting [3]), the “Sleep prolonging rate (%)” value came out at 76%.

For `CCOC(=O)[C@H](Cc1c[nH]c2ccccc12)Nc1ncnc2c1ncn2[C@@H]1O[C@H](CO)C(O)C1O` (stereo partly drawn) [Example 113, N-(6-adenosine)-(L)-tryptophan ethyl ester], the “Sleep prolonging rate (%)” value with male ICR-mice (setting [3]) is on record as 7%.

For the compound `C[C@@H](Nc1ncnc2[nH]cnc12)c1ccccc1` [Example 142, N^6-[(R)-1-(phenyl)-ethyl]-adenine], the “Sleep prolonging rate (%)” value with male ICR-mice (setting [3]) is reported as 21%.

As to `COc1ccc(CNc2ncnc3c2ncn3[C@@H]2O[C@H](CO)[C@@H](O)[C@H]2O)cc1O` [Example 29, N^6-(4-methoxy-3-hydroxybenzyl)-adenosine], the “Sleep rate (%)” value in the assay on mice (1 mg/kg) is reported as 86%.

Regarding “N^6-[(±)-1-(3,4,5-trimethoxyphenyl)-ethyl]-adenosine-5′-decanoic ether [Example 56]”, the “Sleep prolonging rate (%)” value in the assay with male ICR-mice (setting [3]) turned out to be 2%.

For the origin of these results see US10174033B2, “N6-substituted adenosine derivatives and N6-substituted adenine derivatives and uses thereof” (INSTITUTE OF MATERIA MEDICA, CHINESE ACADEMY OF MEDICAL …, priority 2009, dated 2019).
